Experimental data as given in patent US20220387403A1, “COMPOUNDS, COMPOSITIONS AND METHODS FOR TREATING NASH, NAFLD, AND OBESITY” (CVI Pharmaceuticals Limited, priority 2019, published 2022).
Read-outs that look alike come from different tables or passages of the source.

What was measured:
NAFLD hamster model = assay: High fat and high cholesterol diet induced NAFLD hamster model; format: in vivo; settings: C128 10, 20 and 40 mg/kg; fenofibrate 50 mg/kg; 4 weeks
Description: In a high fat and high cholesterol diet (HFHCD) induced non-alcoholic fat liver disease (NAFLD) hamster model, hamsters were fed a HFHCD for two weeks then treated for 4 weeks with C128 at 10 mg/kg, 20 mg/kg and 40 mg/kg, along with fenofibrate at 50 mg/kg as a positive control. Serum lipids and liver enzymes were measured using standard techniques. Liver tissue histopathology with Oil-red O staining and H&E staining were also performed.
In a high fat and high cholesterol diet (HFHCD) induced NAFLD hamster model, hamsters were fed a HFHCD for two weeks then treated for 4 weeks with C127 at 80 mg/kg or with fenofibrate 50 mg/kg.

HepG2 cells = assay: DiI-LDL uptake (LDLR ligand uptake activity) in HepG2 cells; format: cell-based, human; settings: for Activity on DiI-LDL uptake: A, compound dose ≤ 10 μM, 20 hours
Description: HepG2 cells (2×10^5 cells/well) in 24-well culture plates were treated with various compounds at indicated concentrations for 20 hours. The fluorescent 1.1′-dioctadecyl-3,3,3′,3′-tetramethylindocarbocyanin perchlorate (DiI-LDL) (Biomedical Technologies, Stoughton, Mass.) at a concentration of 2 μg/mL was added to cells at the end of treatment. After 4 hours, the medium was removed, cells were washed with cold PBS, and were examined immediately under a fluorescent microscope (Nikon) at 200× amplification. The fluorescent intensity in compound-treated cells was compared to that in untreated control cells. […] In these experiments berberine chloride was used for comparison.
The combined beneficial effects of these novel compounds on elevation of LDLR mRNA levels likely through the mechanism of mRNA stabilization and their inhibitory activity towards PCSK9, the secreted protease that degrades LDLR protein, result in strong increases in LDL ligand uptake activity through increased receptor surface abundance. […] Briefly, HepG2 cells (2×10^5 cells/well) in 24-well culture plates were treated with various compounds at 10 and 40 uM concentrations for 20 hours. The fluorescent 1. 1′-dioctadecyl-3,3,3′, 3′-tetramethylindocarbocyanin perchlorate (DiI-LDL) (Biomedical Technologies, Stoughton, Mass.) at a concentration of 2 μg/ml was added to cells at the end of treatment. After 4 hours, the medium was removed; cells were washed with cold PBS, and were examined immediately under a fluorescent microscope (Nikon) at 200× amplification. The fluorescent intensity in compound-treated cells was compared to that in untreated control cells. […]

LDLR mRNA = LDLR mRNA expression in HepG2 cells, quantitative real-time RT-PCR; format: cell-based, human; settings: 24 hours; for Activity on LDLR mRNA expression (Fold of control): dose less than or equal to 10 μM; for Activity on LDLR mRNA at 40 uM (fold of control) / Activity on LDLR mRNA at 10 uM (fold of control): mean ± s.d.
Description: Activities of some compounds of Formulas I, II, III, and IV on LDLR mRNA expression were determined. HepG2 cells were treated with new compounds individually at a dose less than or equal to 10 μM for 24 hours. Total RNA was harvested for quantitative real-time RT-PCR analysis using the method described in Example 16B. […] In these experiments, berberine chloride was included for comparison. […]
Total RNA was harvested for quantitative real-time RT-PCR analysis using method described in Examples 16B.
The effects of 23 compounds on the mRNA expressions of LDLR and PCSK9 were examined using quantitative real-time RT-PCR assays. HepG2 cells were treated with various compounds at 10 and 40 uM concentrations for 24 hours. Total RNA was isolated and 2 μg was used to generate cDNA in a reaction containing random primers and M-MLV at 37° C. for 1 h in a volume of 25 μl. Real-time PCR was performed on the cDNA using MCEP REALPLEX 2 SYSTEM (Eppendorf) and Universal MasterMix (Applied Biosystems). Human LDLR, PCSK9, and GAPDH Pre-Developed TaqMan Assay Reagents (Applied Biosystems) were used to assess the levels of mRNA expressions in HepG2. The levels of LDLR and PCSK9 mRNA were normalized to that of GAPDH. Each RNA samples was assayed in duplicate. The fold activity was calculated by dividing mRNA abundance in compound treated cells with that of control.

hyperlipidemic rabbits [1] = assay: Lipid lowering effects and blood chemistry in hyperlipidemic rabbits; settings: for serum total cholesterol level: in mM
hyperlipidemic rabbits [2] = settings: rabbit, in vivo
[3] = 40 uM, 20 hours (second symbol of the cell)
[4] = after 14 days of drug treatment, mean, n = 6
[5] = treatment day 0 (before the drug treatment), mean ± SD, n = 6
[6] = treatment day 4, 128(+)/128(−) 30 mg/kg, SMV/ATV 3 mg/kg once a day oral gavage
[7] = treatment day 7, 128(+)/128(−) 30 mg/kg, SMV/ATV 3 mg/kg once a day oral gavage
[8] = treatment day 10, from day 7 128(+)/128(−) 60 mg/kg, SMV/ATV 10 mg/kg
[9] = treatment day 14, from day 7 128(+)/128(−) 60 mg/kg, SMV/ATV 10 mg/kg
[10] = 10 uM, 20 hours (first symbol of the cell)

CC(C)OC(=O)C(C)(C)Oc1ccc(C(=O)c2ccc(Cl)cc2)cc1 [fenofibrate, reference compound]
Body and liver weights (NAFLD hamster model): elevated by a statistically significant amount

COc1ccc2c(c1OC(=O)NC(C)C)CN1CCc3cc4c(cc3C1C2)OCO4 (stereo not drawn) [Compound 41, (10-methoxy(5,6,7,8,13,13a-hexahydro-2H-1,3-dioxolano[4,5-g]isoquinolino[3,2-a]isoquinolin-9-yloxy))-N-(methylethyl)carboxamide]
Activity on DiI-LDL uptake (HepG2 cells): ++ | Activity on LDLR mRNA expression (Fold of control) (LDLR mRNA): 1.60 ± 0.03 Fold of control

COc1ccc2c(c1OC(=O)Nc1ccc(OC(F)(F)F)cc1)CN1CCc3cc4c(cc3C1C2)OCO4 (stereo not drawn) [Compound 44, (10-methoxy(5,6,7,8,13,13a-hexahydro-2H-1,3-dioxolano[4,5-g]isoquinolino[3,2-a]isoquinolin-9-yloxy))-N-[4-(trifluoromethoxy)phenyl]carbox-amide]
Activity on DiI-LDL uptake (HepG2 cells): ++ | Activity on LDLR mRNA expression (Fold of control) (LDLR mRNA): 2.20 ± 0.06 Fold of control

COc1ccc2c(c1)CCN1Cc3c(ccc(OC)c3OS(=O)(=O)c3ccccc3)CC21 (stereo not drawn) [Compound 115, 3,10-Dimethoxy-5,6,7,8,13,13a-hexahydroisoquinolino[2,1-b]isoquinolin-9-yl benzenesulfonate]
Activity in LDL uptake (relative to control) (HepG2 cells; [3]): +++ | Activity on LDLR mRNA at 40 uM (fold of control) (LDLR mRNA): 2.65 ± 0.06 fold of control

COc1cc(NC(=O)Oc2c(OC)ccc3c2CN2CCc4cc5c(cc4C2C3)OCO5)cc(OC)c1 (stereo not drawn) [Compound 45]
Activity on DiI-LDL uptake (HepG2 cells): ++ | Activity on LDLR mRNA expression (Fold of control) (LDLR mRNA): 2.09 ± 0.11 Fold of control

CCC(C)(C)C(=O)O[C@H]1C[C@@H](C)C=C2C=C[C@H](C)[C@H](CC[C@@H]3C[C@@H](O)CC(=O)O3)[C@H]21 [SMV, simvastatin, reference compound]
ALP (hyperlipidemic rabbits [1]; [4]): 288.7 IU/L | CREA (hyperlipidemic rabbits [1]; [4]): 242.2 µmol/L | HDL-C (hyperlipidemic rabbits [1]; [4]): 2.9 mmol/L | LDH (hyperlipidemic rabbits [1]; [4]): 530.3 IU/L | LDL-C (hyperlipidemic rabbits [1]; [4]): 23.3 mmol/L | TC (hyperlipidemic rabbits [1]; [4]): 26.2 mmol/L | TG (hyperlipidemic rabbits [1]; [4]): 1.7 mmol/L | serum total cholesterol level (hyperlipidemic rabbits [1]; [5]): 28.8 ± 7.4 | serum total cholesterol level (hyperlipidemic rabbits [1]; [6]): 24.8 ± 6.1 | serum total cholesterol level (hyperlipidemic rabbits [1]; [7]): 26.1 ± 4.4 | serum total cholesterol level (hyperlipidemic rabbits [1]; [8]): 25.4 ± 6.1 | serum total cholesterol level (hyperlipidemic rabbits [1]; [9]): 26.2 ± 5.5 | CK (hyperlipidemic rabbits [2]): 6492.8 U/L | GLU (hyperlipidemic rabbits [2]): 7.9 mmol/L

COc1ccc2c(c1OS(=O)(=O)c1ccccc1)CN1CCc3cc(C)ccc3C1C2 (stereo not drawn) [Compound 121, 10-Methoxy-3-methyl-5,6,7,8,13,13a-hexahydroisoquinolino[2,1-b]isoquinolin-9-yl benzenesulfonate]
Activity on LDLR mRNA at 10 uM (fold of control) (LDLR mRNA): 3.56 ± 0.03 fold of control | Activity on LDLR mRNA at 40 uM (fold of control) (LDLR mRNA): 3.43 ± 0.81 fold of control

CCOC(=O)Oc1c(OC)ccc2c1CN1CCc3cc4c(cc3C1C2)OCO4 (stereo not drawn) [Compound 48, 10-methoxy-5,6,7,8,13,13a-hexahydro-2H-1,3-dioxolano[4,5-g]isoquinolino[3,2-a]isoquinolin-9-yl ethoxyformate]
Activity on LDLR mRNA expression (Fold of control) (LDLR mRNA): 1.45 ± 0.15 Fold of control

COc1ccc2c(c1OS(=O)(=O)c1ccccc1)CN1CCc3cc4c(cc3C1C2)OCCO4 (stereo not drawn) [Compound 116, 11-Methoxy-6,7,8,9,14,14a-hexahydro-2H,3H-1,4-dioxano[5,6-g]isoquinolino[3,2-a]isoquinolin-10-yl benzenesulfonate]
Activity in LDL uptake (relative to control) (HepG2 cells; [10]): +++/+++ | Activity in LDL uptake (relative to control) (HepG2 cells; [3]): +++/+++

COc1ccc2c(c1)CCN1Cc3c(cccc3OS(=O)(=O)c3cccc(F)c3)CC21 (stereo not drawn) [Compound 150, 3-methoxy-5,6,7,8,13,13a-hexahydroisoquinolino[2,1-b]isoquinolin-9-yl 3-fluorobenzenesulfonate]
Activity in LDL uptake (relative to control) (HepG2 cells; [10]): +/+ | Activity in LDL uptake (relative to control) (HepG2 cells; [3]): +/+

COc1ccc2c(c1OC(=O)N(C)C)CN1CCc3cc4c(cc3C1C2)OCO4 (stereo not drawn) [Compound 43, (10-methoxy(5,6,7,8,13,13a-hexahydro-2H-1,3-dioxolano[4,5-g]isoquinolino[3,2-a]isoquinolin-9-yloxy))-N,N-dimethylcarboxamide]
Activity on DiI-LDL uptake (HepG2 cells): ++ | Activity on LDLR mRNA expression (Fold of control) (LDLR mRNA): 1.95 ± 0.18 Fold of control

COc1ccc2c(c1OC(=O)Nc1ccccc1)CN1CCc3cc4c(cc3C1C2)OCO4 (stereo not drawn) [Compound 61, (10-methoxy(5,6,7,8,13,13a-hexahydro-2H-1,3-dioxolano[4,5-g]isoquinolino[3,2-a]isoquinolin-9-yloxy))-N-benzamide]
Activity on LDLR mRNA expression (Fold of control) (LDLR mRNA): 1.33 ± 0.53 Fold of control

COc1ccc2c(c1)CCN1Cc3c(ccc(OC)c3OS(=O)(=O)c3ccccc3)C(C)C21 (stereo not drawn) [Compound 140, 3,10-Dimethoxy-13-methyl-5,6,7,8,13,13a-hexahydro-isoquinolino[2,1-b]isoquinolin-9-yl benzenesulfonate]
Activity on LDLR mRNA at 10 uM (fold of control) (LDLR mRNA): 6.65 ± 0.68 fold of control

CC(C)c1c(C(=O)Nc2ccccc2)c(-c2ccccc2)c(-c2ccc(F)cc2)n1CC[C@@H](O)C[C@@H](O)CC(=O)O [ATV, atorvastatin, reference compound]
HDL-C (hyperlipidemic rabbits [1]; [4]): 3.6 mmol/L | LDL-C (hyperlipidemic rabbits [1]; [4]): 29.6 mmol/L | TC (hyperlipidemic rabbits [1]; [4]): 33.9 mmol/L | TG (hyperlipidemic rabbits [1]; [4]): 1.7 mmol/L | serum total cholesterol level (hyperlipidemic rabbits [1]; [5]): 28.9 ± 6.0 | serum total cholesterol level (hyperlipidemic rabbits [1]; [6]): 26.5 ± 5.2 | serum total cholesterol level (hyperlipidemic rabbits [1]; [7]): 31.5 ± 4.9 | serum total cholesterol level (hyperlipidemic rabbits [1]; [8]): 32.5 ± 4.5 | serum total cholesterol level (hyperlipidemic rabbits [1]; [9]): 33.9 ± 6.5 | ALP (hyperlipidemic rabbits [2]): 333.5 IU/L | ALT (hyperlipidemic rabbits [2]): 795.6 IU/L | AST (hyperlipidemic rabbits [2]): 767.0 IU/L | CK (hyperlipidemic rabbits [2]): 7270.0 U/L | CREA (hyperlipidemic rabbits [2]): 238.2 µmol/L | GLU (hyperlipidemic rabbits [2]): 6.7 mmol/L | LDH (hyperlipidemic rabbits [2]): 675.0 IU/L

CN1CCc2cc3c(cc2[C@H]1[C@@H]1O[C@H](O)c2c1ccc1c2OCO1)OCO3 [d-(+)-EGN, (+)-egenine]
Activity on DiI-LDL uptake (HepG2 cells): +

COc1ccc2c(c1O)CN1CCc3cc4c(cc3C1C2)OCO4 (stereo not drawn) [Compound 34, 10-methoxy-5,6,7,8,13,13a-hexahydro-2H-1,3-dioxolano[4,5-g]isoquinolino[3,2-a]isoqunolin-9-ol]
Activity on DiI-LDL uptake (HepG2 cells): ++ | Activity on LDLR mRNA expression (Fold of control) (LDLR mRNA): 1.76 ± 0.17 Fold of control

COc1cc2c(cc1OC)C1C(C)c3ccc(OC)c(OS(=O)(=O)c4ccccc4)c3CN1CC2 (stereo not drawn) [Compound 139, 2,3,10-Trimethoxy-13-methyl-5,6,7,8,13,13a-hexahydro-isoquinolino[2,1-b]isoquinolin-9-yl benzensulfonate]
Activity on LDLR mRNA at 10 uM (fold of control) (LDLR mRNA): 11.5 ± 1.29 fold of control | Activity on LDLR mRNA at 40 uM (fold of control) (LDLR mRNA): 3.02 ± 0.34 fold of control

COc1ccc2c(c1OC(=O)Nc1cccc(C)c1)CN1CCc3cc4c(cc3C1C2)OCO4 (stereo not drawn) [Compound 46, (10-methoxy(5,6,7,8,13,13a-hexahydro-2H-1,3-dioxolano[4,5-g]isoquinolino[3,2-a]isoquinolin-9-yloxy))-N-(3-methylphenyl)carboxamide]
Activity on DiI-LDL uptake (HepG2 cells): ++ | Activity on LDLR mRNA expression (Fold of control) (LDLR mRNA): 1.80 ± 0.16 Fold of control
